Results reported in US5614497A, “Peptide, production and use thereof” (Takeda Chemical Industries, Ltd., priority 1991, dated 1997).
pIC50: −log10 of the molar value. *1 amine or outer side, *2 acyl side, *3 side chain or, on linkers, in order; H or OH if unused. Where a SMILES comes first, the peptide text is derived from it. [ ]: non-standard residue; d: D form. The star is where a group is joined. Tyr(3-F) = N[C@@H](Cc1ccc(O)c(F)c1)C(=O)O; Tyr(3-I) = N[C@@H](Cc1ccc(O)c(I)c1)C(=O)O; Phe(4-F) = N[C@@H](Cc1ccc(F)cc1)C(=O)O; Boc = CC(C)(C)OC(=O)*; CO = O=C([*:1])[*:2]; Ahx = NCCCCCC(=O)O; X1 = C1CCCN(*)CC1; βAla = NCCC(=O)O

These molecules were tested against endothelin receptors (assay: Receptor Binding Assay (displacement of radioactive-iodine-labeled endothelin-1 from swine heart membrane fraction)). Conditions: membrane fraction prepared from swine heart; endothelin-1 labeled with radioactive iodine; incubation at 25° C, 1 hour.
Experimental: The membrane fraction prepared from swine heart was diluted to 0.15 mg/ml with an assaying buffer and dispensed to assaying tubes at 100 μl per tube. To this membrane fraction suspension were added 2 μl of a solution of endothelin-1labeled with 5 nM radioactive iodine and 3 μl of a 50% dimethylsulfoxide solution of the subject peptide, followed by incubation at 25° C. After 1 hour, the suspension was diluted with 900 μl of an ice-cooled assaying buffer and centrifuged at 12,000×G for 10 minutes to separate supernatant and precipitate. The precipitate contained cell membranes and endothelin receptors embedded therein. The receptor-bound endothelin, labeled with radioactive iodine, was also recovered in the precipitate. The radioactive iodine in this precipitate was counted, using a gamma ray counter, to determine the amount of radioactive-iodine-labeled endothelin bound to the endothelin receptors. The results of the quantitative determination are shown in IC50 (M) below.
In the case of CC(C)C[C@H](NC(=O)OC(C)(C)C)C(=O)N[C@H](Cc1c[nH]c2ccccc12)C(=O)N[C@H](C)C(=O)NCCC(=O)N[C@@H](Cc1ccc(O)cc1)C(=O)N[C@H](Cc1ccccc1)C(=O)O [Example 1, Boc-Leu-(D)Trp-(D)Ala-βAla-Tyr-(D)Phe-OH] (Boc-L[dW][dA][βAla]Y[dF]-OH), the pIC50 was 8.34.
Molecule CC(C)C[C@H](NC(=O)OC(C)(C)C)C(=O)N[C@H](Cc1c[nH]c2ccccc12)C(=O)N[C@H](C)C(=O)NCCC(=O)N[C@@H](Cc1ccc(O)cc1)C(=O)N[C@@H](Cc1ccccc1)C(=O)O [Example 2, Boc-Leu-(D)Trp-(D)Ala-βAla-Tyr-Phe-OH] (Boc-L[dW][dA][βAla]YF-OH) has a pIC50 of 8.05.
Molecule CC(C)C[C@H](NC(=O)OC(C)(C)C)C(=O)N[C@H](Cc1c[nH]c2ccccc12)C(=O)N[C@H](C)C(=O)NCCCCCC(=O)N[C@@H](Cc1ccc(O)cc1)C(=O)N[C@@H](Cc1ccccc1)C(=O)O [Example 5, Boc-Leu-(D)Trp-(D)Ala-εAhx-Tyr-Phe-OH] (Boc-L[dW][dA][Ahx]YF-OH) has a pIC50 of 8.14.
CC(C)C[C@H](NC(=O)OC(C)(C)C)C(=O)N[C@H](Cc1c[nH]c2ccccc12)C(=O)N[C@H](C)C(=O)NCCC(=O)N[C@@H](Cc1ccc(O)c(F)c1)C(=O)N[C@@H](Cc1ccc(F)cc1)C(=O)O [Example 38, Boc-Leu-(D)Trp-(D)Ala-βAla-(m-F)Tyr-(p-F)Phe-OH] (Boc-L[dW][dA][βAla][Tyr(3-F)][Phe(4-F)]-OH) showed a pIC50 of 7.22.
Work on CC(C)C[C@H](NC(=O)N1CCCCCC1)C(=O)N[C@H](Cc1c[nH]c2ccccc12)C(=O)N[C@H](C)C(=O)NCCC(=O)N[C@@H](Cc1ccc(O)cc1)C(=O)N[C@H](Cc1ccccc1)C(=O)O [Example 39, hexamethyleneimino-CO-Leu-(D)Trp-(D)Ala-βAla-Tyr-(D)Phe-OH] ({X1-CO}-L[dW][dA][βAla]Y[dF]-OH) yielded a pIC50 of 9.47.
CC(C)C[C@H](NC(=O)N1CCCCCC1)C(=O)N[C@H](Cc1c[nH]c2ccccc12)C(=O)N[C@H](C)C(=O)NCCC(=O)N[C@@H](Cc1ccc(O)c(I)c1)C(=O)N[C@H](Cc1ccccc1)C(=O)O [Example 43, Hexamethyleneimino-CO-Leu-(D)Trp-(D)Ala-βAla-Tyr(I)-(D)Phe-OH] ({X1-CO}-L[dW][dA][βAla][Tyr(3-I)][dF]-OH) showed a pIC50 of 9.15.
Molecule CC(C)C[C@H](NC(=O)OC(C)(C)C)C(=O)N[C@H](Cc1c[nH]c2ccccc12)C(=O)N[C@H](C)C(=O)NCCC(=O)N[C@@H](CCC(=O)O)C(=O)O [Reference Example 1, Boc-Leu-(D)Trp-(D)Ala-βAla-Glu--OH, reference compound] (Boc-L[dW][dA][βAla]E-OH) has a pIC50 of 6.15.
CC(C)C[C@H](NC(=O)OC(C)(C)C)C(=O)N[C@H](Cc1c[nH]c2ccccc12)C(=O)N[C@H](C)C(=O)NCCC(=O)N[C@H](CC(C)C)C(=O)O [Reference Example 2, Boc-Leu-(D)Trp-(D)Ala-βAla-(D)Leu--OH, reference compound] (Boc-L[dW][dA][βAla][dL]-OH) was tested, and the pIC50 was 6.38.
